From the SangsterLogP compilation

Point of comparison: O=C(O)CCCCO/N=C(/c1ccccc1)c1cccnn1, logP 0. Against it:
- O=C(O)CCCO/N=C(/c1ccccc1)c1cnccn1 — lower, -0.53
- O=C(O)CCCCO/N=C(/c1ccccc1)c1cnccn1 — lower, -0.23
- O=C(O)CCCO/N=C(\c1ccccc1)c1ccnnc1 — lower, -0.4
- O=C(O)CCCCO/N=C(/c1ccccc1)c1ccnnc1 — lower, -0.33
- O=C(O)CCCCCO/N=C(/c1ccccc1)c1ccnnc1 — within 0.2 log units, 0.1
- O=C(O)CCCO/N=C(/c1ccccc1)c1cccnn1 — lower, -0.27
- O=C(O)CCCCCO/N=C(/c1ccccc1)c1cccnn1 — within 0.2 log units, -0.01
- O=C(O)CCCCCON=C(c1ccccc1)c1cnccn1 — higher, 0.23
